Entries after “also recorded” stand apart in the source; their conditions may differ. Counter-ions that a name gives are not always drawn. Like-named read-outs stand apart in the source and are kept apart here.

The target of assay [1] is heart adenylate cyclase. The settings on record: Table I, data from Minneman et al, cited from earlier work; for Ki: antagonists, read-out: Adenylate Cyclase Ki, Heart (G).
For assay [2], the system named is rabbit ciliary process adenylate cyclase (beta2-adrenergic receptors). Description: rabbit ciliary process isoproterenol-stimulated adenylate cyclase. As to conditions: for Ki heart / Ki Ciliary Process = beta2/beta1 potency ratio: Table III, rabbit heart vs rabbit ciliary process, ±20%. The assay is classed as biochemical.
The target of assay [3] is T1, rabbit ciliary process adenylate cyclase (beta2-adrenergic receptors) (Oryctolagus cuniculus, UniProt G1TAV7).
T1 construct: Homogenates or washed particulate preparations (10 mg/ml) in 6 mM Tris-maleate, pH 7.4, are prepared from the various tissues to be studied; from tissue; host or cells: rabbit ciliary process
T1 sequence (G1TAV7 1-437): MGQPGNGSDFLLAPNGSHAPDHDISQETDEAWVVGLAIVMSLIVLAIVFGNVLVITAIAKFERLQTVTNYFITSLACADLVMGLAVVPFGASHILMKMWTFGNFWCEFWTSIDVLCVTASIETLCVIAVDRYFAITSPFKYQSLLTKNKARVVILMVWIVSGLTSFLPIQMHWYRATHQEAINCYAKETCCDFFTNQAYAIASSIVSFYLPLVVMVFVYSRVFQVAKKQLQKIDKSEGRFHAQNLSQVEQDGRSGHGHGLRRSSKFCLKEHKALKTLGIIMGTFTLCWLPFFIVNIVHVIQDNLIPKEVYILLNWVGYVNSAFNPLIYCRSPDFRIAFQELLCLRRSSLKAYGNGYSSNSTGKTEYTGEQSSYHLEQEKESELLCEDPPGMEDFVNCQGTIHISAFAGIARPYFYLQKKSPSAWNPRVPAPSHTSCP
The assay is described as above. In kind it is biochemical. As to conditions: Table III; rabbit ciliary process, isoproterenol-stimulated.

The target in assay [4] is beta1-adrenergic receptor present in mammalian heart. As to conditions: Table I; data from Minneman et al; read-out: Kd for IHYP Binding, Heart (E); cited from earlier work.
For assay [5], the system named is adult female cats. The settings on record: Colasanti and Trotter 1979; cited from earlier work.
In assay [6] the target is rabbit heart isoproterenol-stimulated adenylate cyclase. Description: rabbit heart isoproterenol-stimulated adenylate cyclase. In kind it is biochemical.
Assay [7] relates to ciliary body adenylate cyclase. The assay is described as follows: ciliary body adenylate cyclase stimulation. The assay is classed as biochemical. From the text: (§1) The discovery that the ciliary process of the mammalian eye contains β2 -adrenergic receptors is based on the technique of measuring adenylate cyclase, an enzyme which synthesizes cyclic AMP from ATP. It has been established that receptor binding of beta adrenergic agonists is associated with a concomitant activation of adenylate cyclase. (Robison, G. A., et al, Cyclic AMP, Academic Press, New York, 1971, and Wolfe, B. B., et al, Annual Reviews of Pharmacology and Toxicology, 17:575-604 (1977)). […] Beta adrenergic sensitive adenylate cyclase activity was thus identified and characterized in the ocular tissues of several mammalian species such as rabbits, cats, dogs, monkeys and humans. After isolation of the ciliary process, adenylate cyclase activity was measured, and its activation by agonists or inhibition by antagonists was measured. […].
(§2) For ciliary body, maximal stimulation was 15% of the stimulation seen in the ciliary process, and for iris, maximal stimulation was 22% for that seen in the ciliary process. […];

Assay [8] concerns iris adenylate cyclase. Description: iris adenylate cyclase stimulation. The assay is classed as biochemical.
Excerpt: as §1, §2

Assay [9] deals with rabbit eyes. The assay is described as follows: intraocular pressure in normal rabbit eyes after topical application. The settings on record: for IOP in the contralateral eye: 0.5% topical to ipsilateral eye, presumably systemic absorption; for IOP in ipsilateral eyes compared to predrug readings: two 50 microliter doses, normal rabbit, FIG. 2.
The mark [10] stands for this setting: Table III, rabbit heart, isoproterenol-stimulated, read-out: Adenylate Cyclase Ki, Heart.

By Ki is commonly meant the dissociation constant of the complex between target and ligand, obtained from inhibition or displacement. The term Kd denotes the concentration at which binding is half-saturated. As for `Cc1ccc(C(O)C(C)NC(C)C)cc1` (stereo not drawn) [H35/25, (1(4'-methyl phenyl)-2-isopropylaminopropanol)], the Ki in [1] is 7 µM; in assay [3], 0.79 µM; in assay [6] (setting [10]), 7 µM. Also, the “Ki heart / Ki Ciliary Process = beta2/beta1 potency ratio” value in assay [2] is recorded as 8.8. The “β2/β1 potency ratio (Ki heart/Ki ciliary process)” value in assay [2] (rabbit, heart vs ciliary process) is 3.1. In assay [4], the Kd was 1.97 µM. In assay [5], the “maximal reduction of intraocular tension” value is reported as “about the same maximal reduction as timolol”.

In the case of `CNC[C@H](O)c1ccc(O)c(O)c1` [Epinephrine], the “Adenylate Cyclase Ka, Heart (G)” value in assay [1] (agonists, NE = no effect as agonist) is 1.5 µM.

`CC(C)NCC(O)c1ccc(O)c(O)c1` (stereo not drawn) [Isoproterenol, isoproterenol]: in assay [7], the “maximal stimulation, ciliary body” value is on record as 15 % of the stimulation seen in the ciliary process. For the same molecule, the “maximal stimulation, iris” value in assay [8] is on record as 22 % for that seen in the ciliary process.

The molecule `CC(C)NCC(O)COc1ccc(CC(N)=O)cc1` (stereo not drawn) [Atenolol, atenolol] showed a Ki in [3] of 11 µM.

Regarding `CC(C)(C)NCC(O)CON=C1c2ccccc2-c2ccccc21` (stereo not drawn) [IPS 339, (t-butyl-amino 3-ol-2-propyl)oximino-9 fluorene, hydrochloride], in assay [9], the “IOP in the contralateral eye” value is “significant decrease in IOP in the contralateral eye”. Besides, in [9] (0.5% topical), the “IOP in ipsilateral eyes compared to predrug readings” value is “significant decrease in IOP in ipsilateral eyes at 2 and 3 hours after application”. Further, in assay [9] (0.5% topical, at 3 hours), the “extent of IOP decrease, IPS 339 compared with timolol” value is reported as “significantly more than that caused by timolol”. Besides, in [9] (0.5% topical, compared with timolol), the “magnitude of contralateral IOP effect” value was “somewhat less for IPS 339 than for timolol”. The Ki was 0.84 µM in assay [6] (Table I, footnote ++ present invention, read-out: Adenylate Cyclase Ki, Heart (G)) and 0.84 µM in assay [6] (setting [10]).

Take `CC(C)(C)NC[C@H](O)COc1nsnc1N1CCOCC1` [Timolol, timolol]: the Ki was 0.016 µM in [1], 0.0045 µM in assay [3] and 0.016 µM in assay [6] (setting [10]). Also, the “IOP in the contralateral eye” value in assay [9] was “significant decrease in IOP in the contralateral eye”. For the same molecule, the “IOP in ipsilateral eyes compared to predrug readings” value in [9] (0.5% topical) was “significant decrease in IOP in ipsilateral eyes at 2 and 3 hours after application; also recorded: significant decrease at 1 hour”.

Regarding `COc1ccc(OC)c(C(O)C(C)NC(C)(C)C)c1` (stereo not drawn) [Butoxamine], the Ki in assay [1] is 9.5 µM; in [3] it was 1.4 µM; in assay [6] (setting [10]), 9.5 µM. For the same molecule, the “β2/β1 potency ratio (Ki heart/Ki ciliary process)” value in [2] (Table II, from Table I, accurate to ±20%) came out at 1.50. For the same molecule, the “Ki heart / Ki Ciliary Process = beta2/beta1 potency ratio” value in assay [2] came out at 6.8.

Turning to `CC(=O)Nc1ccc(OCC(O)CNC(C)C)cc1` (stereo not drawn) [Practolol, practolol], the values for the Ki in assay [1], in assay [3] and in assay [6] (setting [10]) were 6.8 µM, 21 µM and 6.8 µM, respectively.

(Values after patent publication US4652586A, “Selective beta-2 adrenergic antagonists for the treatment of glaucoma” (priority 1980, dated 1987).)
